In US10441663B2, “Methods for treating cancer” (Bicycle Therapeutics Limited, priority 2016, dated 2019):
*1 amine or outer side, *2 acyl side, *3 side chain or, on linkers, in order; H or OH if unused. Where a SMILES comes first, the peptide text is derived from it. Bridges are numbered along the chain shown (N, C = ends). [ ]: non-standard residue; d: D form. 1Nal = N[C@@H](Cc1cccc2ccccc12)C(=O)O; TBMB = c1c(C[*:1])cc(C[*:3])cc1C[*:2]; Tle = CC(C)(C)[C@H](N)C(=O)O; βAla = NCCC(=O)O; Sar = CNCC(=O)O

What was measured:
MMP15 = MMP15 (Homo sapiens, UniProt P51511); assay: Binding to related MMP family member
Sequence of MMP15 (P51511 132-669, species assumed): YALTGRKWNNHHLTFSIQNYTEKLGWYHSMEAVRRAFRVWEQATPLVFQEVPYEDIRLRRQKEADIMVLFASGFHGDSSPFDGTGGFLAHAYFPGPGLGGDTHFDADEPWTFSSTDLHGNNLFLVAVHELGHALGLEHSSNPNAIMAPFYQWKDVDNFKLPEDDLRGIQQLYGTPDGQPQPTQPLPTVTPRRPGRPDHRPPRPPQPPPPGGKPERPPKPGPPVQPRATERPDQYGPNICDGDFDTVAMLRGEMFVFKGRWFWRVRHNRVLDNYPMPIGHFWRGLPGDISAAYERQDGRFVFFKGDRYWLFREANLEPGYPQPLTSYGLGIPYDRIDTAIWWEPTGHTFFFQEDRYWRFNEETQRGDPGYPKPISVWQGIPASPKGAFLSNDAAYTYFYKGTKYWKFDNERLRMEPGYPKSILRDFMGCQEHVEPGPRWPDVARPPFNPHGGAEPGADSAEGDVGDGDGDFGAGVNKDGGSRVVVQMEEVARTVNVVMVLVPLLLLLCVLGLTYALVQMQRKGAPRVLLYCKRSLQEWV

MMP16 = MMP16 (Homo sapiens, UniProt P51512); assay: Binding to related MMP family member
Sequence of MMP16 (P51512 120-607, species assumed): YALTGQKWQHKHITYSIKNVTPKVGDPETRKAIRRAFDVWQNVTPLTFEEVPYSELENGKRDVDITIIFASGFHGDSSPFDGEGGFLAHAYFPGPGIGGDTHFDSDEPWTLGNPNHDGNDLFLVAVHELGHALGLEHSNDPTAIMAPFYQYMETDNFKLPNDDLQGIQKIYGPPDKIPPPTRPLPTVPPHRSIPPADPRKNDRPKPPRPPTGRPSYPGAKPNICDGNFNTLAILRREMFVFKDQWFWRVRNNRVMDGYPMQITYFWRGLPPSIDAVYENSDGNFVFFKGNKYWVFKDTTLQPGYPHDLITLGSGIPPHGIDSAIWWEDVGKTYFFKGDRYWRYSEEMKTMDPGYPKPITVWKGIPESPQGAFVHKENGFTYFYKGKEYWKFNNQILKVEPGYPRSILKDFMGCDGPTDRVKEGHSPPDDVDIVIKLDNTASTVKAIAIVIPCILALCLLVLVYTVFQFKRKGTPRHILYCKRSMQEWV

MMP2 [1] = target: T1, MMP2 (Homo sapiens, UniProt P08253); assay: Binding to related MMP family member
T1 sequence (P08253 110-660, species assumed): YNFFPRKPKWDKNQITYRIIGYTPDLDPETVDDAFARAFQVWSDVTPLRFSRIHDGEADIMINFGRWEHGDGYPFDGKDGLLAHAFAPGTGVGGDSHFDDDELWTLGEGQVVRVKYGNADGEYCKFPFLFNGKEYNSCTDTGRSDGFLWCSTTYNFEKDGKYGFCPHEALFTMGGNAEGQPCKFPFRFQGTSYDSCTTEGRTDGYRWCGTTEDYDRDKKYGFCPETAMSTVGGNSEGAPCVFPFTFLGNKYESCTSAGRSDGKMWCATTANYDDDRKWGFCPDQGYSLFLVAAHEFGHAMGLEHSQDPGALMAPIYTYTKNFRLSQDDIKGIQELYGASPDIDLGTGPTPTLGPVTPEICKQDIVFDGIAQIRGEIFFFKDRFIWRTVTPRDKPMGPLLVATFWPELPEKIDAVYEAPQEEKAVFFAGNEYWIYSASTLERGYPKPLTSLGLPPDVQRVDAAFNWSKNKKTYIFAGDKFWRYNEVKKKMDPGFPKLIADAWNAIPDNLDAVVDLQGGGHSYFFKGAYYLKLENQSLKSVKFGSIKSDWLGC
Method: (§1) A bicyclic constrained peptide binder (Bicycle) was identified that binds to the hemopexin domain of MT1 with an apparent Kd of approximately 2 nM. […] Bicycle drug conjugates (BDCs) with a variety of linkers and cytotoxic payloads were prepared which retained binding to MT1.

MMP1 [2] = target: T2, MMP1 (Homo sapiens, UniProt P03956); assay: Binding to related MMP family member
T2 sequence (P03956 100-469, species assumed): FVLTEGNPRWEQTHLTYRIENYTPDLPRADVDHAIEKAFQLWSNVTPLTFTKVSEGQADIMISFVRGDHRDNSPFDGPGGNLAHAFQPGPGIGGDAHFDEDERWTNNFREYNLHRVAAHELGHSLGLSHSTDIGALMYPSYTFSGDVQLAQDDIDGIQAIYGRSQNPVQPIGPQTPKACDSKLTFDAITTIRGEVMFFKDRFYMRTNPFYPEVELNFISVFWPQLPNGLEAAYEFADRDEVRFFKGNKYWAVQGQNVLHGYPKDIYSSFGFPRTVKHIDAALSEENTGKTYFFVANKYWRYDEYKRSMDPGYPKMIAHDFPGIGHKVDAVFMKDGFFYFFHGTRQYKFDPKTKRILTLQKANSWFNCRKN
Method: as §1

MMP24 = MMP24 (Homo sapiens, UniProt Q9Y5R2); assay: Binding to related MMP family member
Sequence of MMP24 (Q9Y5R2 156-645, species assumed): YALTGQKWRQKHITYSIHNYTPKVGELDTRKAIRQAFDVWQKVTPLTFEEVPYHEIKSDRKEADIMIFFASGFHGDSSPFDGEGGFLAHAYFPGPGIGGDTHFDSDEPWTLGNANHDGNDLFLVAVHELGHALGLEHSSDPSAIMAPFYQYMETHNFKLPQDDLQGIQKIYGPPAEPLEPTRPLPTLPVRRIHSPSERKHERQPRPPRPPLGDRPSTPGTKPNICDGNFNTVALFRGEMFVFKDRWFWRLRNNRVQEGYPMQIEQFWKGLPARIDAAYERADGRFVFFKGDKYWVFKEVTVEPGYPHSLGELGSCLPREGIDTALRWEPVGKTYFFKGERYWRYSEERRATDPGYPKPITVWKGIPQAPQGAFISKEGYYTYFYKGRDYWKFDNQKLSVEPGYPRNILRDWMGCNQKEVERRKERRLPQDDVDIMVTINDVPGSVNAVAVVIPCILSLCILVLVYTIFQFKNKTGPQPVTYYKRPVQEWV
Method: as §1

Pro-MMP1 = target: T3, Pro-MMP1 (Homo sapiens, UniProt P03956); assay: Binding to related MMP family member
T3 construct: MMP1, Pro-MMP1, MMP2
T3 sequence (P03956 20-469 limits assumed): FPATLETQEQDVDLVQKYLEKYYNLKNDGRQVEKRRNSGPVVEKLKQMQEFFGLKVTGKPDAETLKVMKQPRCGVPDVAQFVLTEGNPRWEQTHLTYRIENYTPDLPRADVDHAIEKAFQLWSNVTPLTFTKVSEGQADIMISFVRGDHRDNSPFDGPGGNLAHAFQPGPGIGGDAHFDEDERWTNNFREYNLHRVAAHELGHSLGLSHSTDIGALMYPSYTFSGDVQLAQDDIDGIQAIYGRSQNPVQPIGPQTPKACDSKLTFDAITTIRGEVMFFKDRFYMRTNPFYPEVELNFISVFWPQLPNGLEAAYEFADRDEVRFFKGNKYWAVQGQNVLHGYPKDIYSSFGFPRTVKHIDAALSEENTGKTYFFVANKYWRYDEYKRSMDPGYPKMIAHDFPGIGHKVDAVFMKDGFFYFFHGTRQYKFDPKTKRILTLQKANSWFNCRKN

[3] = system: cell migration or invasion; assay: Effect on cell migration or invasion; format: cell-based; details: in vitro
Method: as §1

MT1 = MT1 (Homo sapiens, UniProt P50281); assay: Effect on catalytic activity of the protease in vitro; format: biochemical
Method: as §1

MMP9 = MMP9 (Homo sapiens, UniProt P14780); assay: Effect on related MMP catalytic activity; format: biochemical; details: in vitro
Sequence of MMP9 (P14780 94-707, species assumed): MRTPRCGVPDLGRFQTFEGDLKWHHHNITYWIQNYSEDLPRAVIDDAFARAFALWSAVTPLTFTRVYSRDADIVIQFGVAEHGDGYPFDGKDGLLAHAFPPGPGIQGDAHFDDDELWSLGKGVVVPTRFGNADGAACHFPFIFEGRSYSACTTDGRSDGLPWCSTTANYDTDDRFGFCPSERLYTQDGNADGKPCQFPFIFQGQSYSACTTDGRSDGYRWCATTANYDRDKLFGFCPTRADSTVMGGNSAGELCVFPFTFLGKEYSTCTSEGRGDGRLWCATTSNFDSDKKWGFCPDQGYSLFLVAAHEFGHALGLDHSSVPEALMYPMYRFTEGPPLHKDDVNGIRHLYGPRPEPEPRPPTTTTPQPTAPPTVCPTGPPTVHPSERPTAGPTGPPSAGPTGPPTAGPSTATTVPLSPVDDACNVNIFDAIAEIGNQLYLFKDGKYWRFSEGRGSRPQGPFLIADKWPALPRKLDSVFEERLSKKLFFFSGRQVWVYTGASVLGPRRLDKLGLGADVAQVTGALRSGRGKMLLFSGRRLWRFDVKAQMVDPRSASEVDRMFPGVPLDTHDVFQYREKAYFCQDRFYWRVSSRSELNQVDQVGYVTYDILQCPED
Method: as §1

MMP2 [4] = target: T1, MMP2; assay: Effect on related MMP catalytic activity; format: biochemical; details: in vitro
Method: as §1

MMP1 [5] = target: T2, MMP1; assay: Effect on related MMP catalytic activity; format: biochemical; details: in vitro
Method: as §1

catalytic domain (MT1) = assay: Bicycle peptide binding to catalytic domain
Method: as §1

Compound: C[C@H](NC(=O)CN(C)C(=O)CN(C)C(=O)CN(C)C(=O)CN(C)C(=O)CN(C)C(=O)CN(C)C(=O)CN(C)C(=O)CN(C)C(=O)CN(C)C(=O)CN(C)C(=O)CCN)C(=O)N[C@H]1CSCc2cc3cc(c2)CSC[C@H](NC(=O)[C@@H](C)NC(=O)[C@H](Cc2cccc4ccccc24)NC(=O)[C@H](CCC(=O)O)NC(=O)[C@H](CC(N)=O)NC(=O)[C@@H](C)NC1=O)C(=O)N[C@@H](CCC(=O)O)C(=O)N[C@@H](CC(=O)O)C(=O)N[C@@H](Cc1ccccc1)C(=O)N[C@@H](Cc1ccc(O)cc1)C(=O)N[C@@H](CC(=O)O)C(=O)N[C@@H](C(C)(C)C)C(=O)N[C@H](C(N)=O)CSC3 [N241] (H-[βAla][Sar][Sar][Sar][Sar][Sar][Sar][Sar][Sar][Sar][Sar]AC[dA]NE[1Nal][dA]CEDFYD[Tle]C-NH2; linker 13-19-26 via TBMB; N-terminus and C-terminus assumed)
- binding (MMP15): no binding
- binding (MMP16): no binding
- binding (MMP2 [1]): no binding
- binding (MMP1 [2]): no binding
- binding (MMP24): no binding
- binding (Pro-MMP1): no binding
- impact on cell migration or invasion [3]: no direct impact
- impact on catalytic activity (MT1): no direct impact
- impact on catalytic activity (MMP9): no direct impact
- impact on catalytic activity (MMP2 [4]): no direct impact
- impact on catalytic activity (MMP1 [5]): no direct impact
- binding (catalytic domain (MT1)): no binding
